Results published in ChEMBL document CHEMBL3826941, “Optimization of pyrazole-containing 1,2,4-triazolo-[3,4-b]thiadiazines, a new class of STAT3 pathway inhibitors” (Bioorg Med Chem Lett, 2016).
One block for each compound: values may come before it. The source made the active and inactive calls. The calls are words filed in the database; no cut-off is given here.

What was measured:
[1] = Antiproliferative activity against human CAL33 cells assessed as cell growth inhibition; assay type: functional, CAL-33
FaDu = experiment: Antiproliferative activity against human FADU cells assessed as cell growth inhibition; assay type: functional
[2] = Antiproliferative activity against human 686LN cells assessed as cell growth inhibition; assay type: functional
[3] = target: T1, Signal transducer and activator of transcription 1-alpha/beta (Homo sapiens) (UniProt P42224); experiment: Inhibition of IFNgamma-induced STAT1 (unknown origin) at 50 uM
T1 sequence (whole entry): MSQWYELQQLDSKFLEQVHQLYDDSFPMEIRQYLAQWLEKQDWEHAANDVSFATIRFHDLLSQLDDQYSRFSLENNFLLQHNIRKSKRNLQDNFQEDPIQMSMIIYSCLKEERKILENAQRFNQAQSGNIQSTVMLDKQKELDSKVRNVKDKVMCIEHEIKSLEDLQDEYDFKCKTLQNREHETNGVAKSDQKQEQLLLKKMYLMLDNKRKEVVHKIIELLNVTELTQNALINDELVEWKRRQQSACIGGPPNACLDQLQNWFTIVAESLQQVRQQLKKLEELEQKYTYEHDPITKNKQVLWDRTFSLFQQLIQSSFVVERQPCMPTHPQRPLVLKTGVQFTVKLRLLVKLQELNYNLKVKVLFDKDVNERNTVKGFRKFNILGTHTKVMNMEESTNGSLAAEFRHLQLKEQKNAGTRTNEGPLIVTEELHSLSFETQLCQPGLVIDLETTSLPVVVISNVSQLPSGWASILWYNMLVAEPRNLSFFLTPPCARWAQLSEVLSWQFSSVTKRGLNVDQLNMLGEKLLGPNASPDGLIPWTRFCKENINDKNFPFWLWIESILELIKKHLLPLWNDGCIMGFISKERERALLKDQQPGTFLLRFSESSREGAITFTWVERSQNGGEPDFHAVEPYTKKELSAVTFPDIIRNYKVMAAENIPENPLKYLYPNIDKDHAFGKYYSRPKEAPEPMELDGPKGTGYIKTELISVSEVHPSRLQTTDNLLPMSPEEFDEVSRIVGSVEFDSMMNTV

[4] = Antiproliferative activity against human OSC19 cells assessed as cell growth inhibition; assay type: functional
Liver microsome = experiment: Half life in human liver microsomes; assay type: ADME
[5] = Half life in mouse liver microsomes; assay type: ADME
[6] = target: Signal transducer and activator of transcription 3 (Homo sapiens) (UniProt P40763); experiment: Inhibition of STAT3 in IL6-induced human CAL33 cells assessed as inhibition of cyclin D1 gene levels at 3 to 100 uM by Western blot analysis; assay type: cell-based; settings: CAL-33
Chain of Signal transducer and activator of transcription 3 (Homo sapiens) (P40763 whole entry): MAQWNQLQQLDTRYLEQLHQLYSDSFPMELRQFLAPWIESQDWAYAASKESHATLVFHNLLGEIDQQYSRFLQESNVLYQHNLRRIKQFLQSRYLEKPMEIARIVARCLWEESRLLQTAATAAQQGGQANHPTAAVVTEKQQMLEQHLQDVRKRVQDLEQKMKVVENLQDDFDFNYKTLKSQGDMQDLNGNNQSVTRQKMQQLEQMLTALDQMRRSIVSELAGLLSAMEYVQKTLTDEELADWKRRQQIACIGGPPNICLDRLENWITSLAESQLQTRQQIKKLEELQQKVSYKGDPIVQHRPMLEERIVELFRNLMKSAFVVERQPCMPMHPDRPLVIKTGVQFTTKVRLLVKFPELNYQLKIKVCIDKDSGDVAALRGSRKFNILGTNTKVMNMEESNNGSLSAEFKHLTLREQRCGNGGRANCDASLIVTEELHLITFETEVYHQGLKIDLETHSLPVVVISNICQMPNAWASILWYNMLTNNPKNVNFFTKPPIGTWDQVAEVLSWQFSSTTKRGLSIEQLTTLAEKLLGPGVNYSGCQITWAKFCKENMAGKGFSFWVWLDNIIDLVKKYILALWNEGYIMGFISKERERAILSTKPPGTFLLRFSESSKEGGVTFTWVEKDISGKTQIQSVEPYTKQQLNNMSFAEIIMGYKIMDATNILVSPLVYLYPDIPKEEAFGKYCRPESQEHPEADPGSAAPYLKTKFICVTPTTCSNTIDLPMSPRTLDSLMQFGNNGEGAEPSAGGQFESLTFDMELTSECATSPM

[7] = target: Signal transducer and activator of transcription 3 (Homo sapiens) (UniProt P40763); experiment: Inhibition of STAT3 in IL6-induced human CAL33 cells assessed as inhibition of Bcl-XL gene levels at 3 to 100 uM by Western blot analysis; assay type: cell-based; settings: CAL-33
[8] = target: Signal transducer and activator of transcription 3 (Homo sapiens) (UniProt P40763); experiment: Inhibition of STAT3 phosphorylation at Tyr705 in IL6-induced human CAL33 cells assessed as phosphorylated STAT3 at Tyr705 to STAT3 ratio at 30 uM by Western blot analysis; assay type: cell-based; settings: CAL-33
[9] = target: Signal transducer and activator of transcription 3 (Homo sapiens) (UniProt P40763); experiment: Inhibition of STAT3 phosphorylation at Tyr705 in IL6-induced human CAL33 cells at 3 to 100 uM by Western blot analysis; assay type: cell-based; settings: CAL-33
[10] = target: Signal transducer and activator of transcription 3 (Homo sapiens) (UniProt P40763); experiment: Inhibition of STAT3 phosphorylation at Tyr705 in IL6-induced human CAL33 cells assessed as phosphorylated STAT3 at Tyr705 to STAT3 ratio at 10 uM by Western blot analysis; assay type: cell-based; settings: CAL-33
[11] = target: Signal transducer and activator of transcription 3 (Homo sapiens) (UniProt P40763); experiment: Inhibition of STAT3 phosphorylation at Tyr705 in IL6-induced human CAL33 cells assessed as phosphorylated STAT3 at Tyr705 to STAT3 ratio at 100 uM by Western blot analysis; assay type: cell-based; settings: CAL-33

Structure (SMILES): CC1Sc2nnc(-c3[nH]nc4c3CCC4)n2N=C1c1ccc(Cl)c(Cl)c1 (stereo unspecified)
GI50 ([1]; Homo sapiens, CAL-33): 1.9 µM

Structure (SMILES): COc1ccc(C2=Nn3c(nnc3-c3cc(-c4ccc(F)cc4)n[nH]3)SC2C)cc1 (stereo unspecified)
GI50 ([1]; Homo sapiens, CAL-33): 29.5 µM

Structure (SMILES): COc1ccc(C2=Nn3c(nnc3-c3cc(-c4ccccc4)n[nH]3)SC2CCN)cc1 (stereo unspecified)
GI50 ([1]; Homo sapiens, CAL-33): 2.5 µM

Structure (SMILES): CC(C)C1Sc2nnc(-c3[nH]nc4c3CCC4)n2N=C1c1ccc(Cl)c(Cl)c1 (stereo unspecified)
GI50 ([1]; Homo sapiens, CAL-33): 8.2 µM

Structure (SMILES): COc1ccc(C2=Nn3c(nnc3-c3cc(-c4ccc(Cl)cc4)n[nH]3)SC2C)cc1 (stereo in doubt; form 2)
GI50 [1]: 2.7 µM

Structure (SMILES): CC(C)CC1Sc2nnc(-c3[nH]nc4c3CCC4)n2N=C1c1ccc(Cl)c(Cl)c1 (stereo unspecified)
GI50 ([1]; Homo sapiens, CAL-33): 3.5 µM

Structure (SMILES): CC1(C)Sc2nnc(-c3[nH]nc4c3CCC4)n2N=C1c1ccc(Cl)c(Cl)c1
GI50 ([1]; Homo sapiens, CAL-33): > 50 µM

inhibition [3]: inactive
Structure (SMILES): Clc1ccc(C2=Nn3c(nnc3-c3cc(-c4ccccc4)[nH]n3)SC2)cc1
GI50 (FaDu): 27 µM
GI50 [2]: 27 µM
GI50 ([1]; Homo sapiens, CAL-33): 27 µM
GI50 [4]: 27 µM

Structure (SMILES): COc1ccc(C2=Nn3c(nnc3-c3cc(-c4ccc(Cl)cc4)n[nH]3)SC2C)cc1 (stereo in doubt; form 3)
GI50 [1]: 21.8 µM

Structure (SMILES): COc1ccc(C2=Nn3c(nnc3-c3cc(-c4ccccc4)n[nH]3)SC2CC(C)C)cc1 (stereo unspecified)
GI50 ([1]; Homo sapiens, CAL-33): 0.5 µM

Structure (SMILES): COc1ccc(C2=Nn3c(nnc3-c3[nH]nc4c3CCC4)SC2C(C)C)cc1 (stereo unspecified)
GI50 ([1]; Homo sapiens, CAL-33): 0.4 µM

inhibition [3]: inactive
t1/2 (Liver microsome): 14 min
t1/2 [5]: 4 min
Structure (SMILES): Clc1ccc(C2=Nn3c(nnc3-c3[nH]nc4c3CCC4)SC2)cc1Cl
GI50 (FaDu): 14 µM
GI50 [2]: 14 µM
GI50 ([1]; Homo sapiens, CAL-33): 14 µM
GI50 [4]: 14 µM

Structure (SMILES): COc1ccc(C2=Nn3c(nnc3-c3[nH]nc4c3CCC4)SC2C)cc1 (stereo unspecified)
GI50 (FaDu): 1.3 µM
GI50 [2]: 0.88 µM
GI50 ([1]; Homo sapiens, CAL-33): 0.18 µM
GI50 [4]: 3.1 µM

inhibition [6]: Active
inhibition [7]: Active
inhibition [8]: 28%
t1/2 (Liver microsome): 27 min
inhibition [9]: Active
inhibition [10]: 15%
t1/2 [5]: 10 min
inhibition [11]: 99%
Structure (SMILES): CC1Sc2nnc(-c3cc(-c4ccccc4)n[nH]3)n2N=C1c1ccccc1 (stereo unspecified)
GI50 (FaDu): 32.7 µM
GI50 [2]: 32.2 µM
GI50 ([1]; Homo sapiens, CAL-33): 34.1 µM
GI50 [4]: 31.3 µM

Structure (SMILES): COc1ccc(C2=Nn3c(nnc3-c3cc(-c4ccc(Cl)cc4)n[nH]3)SC2C)cc1 (stereo in doubt; form 1) [listing 1 of 2 here]
inhibition [6]: Active
inhibition [7]: Active
inhibition [8]: 55%
inhibition [9]: Active
inhibition [10]: 21%
inhibition [11]: 99.7%

Structure (SMILES): COCCC1Sc2nnc(-c3cc(-c4ccccc4)n[nH]3)n2N=C1c1ccc(OC)cc1 (stereo unspecified)
GI50 ([1]; Homo sapiens, CAL-33): 0.04 µM

Structure (SMILES): COc1ccc(C2=Nn3c(nnc3-c3cc(-c4ccc(Cl)cc4)n[nH]3)SC2C)cc1 (stereo in doubt; form 1) [listing 2 of 2 here]
GI50 (FaDu): 8.4 µM
GI50 [2]: 17.4 µM
GI50 [1]: 2.2 µM
GI50 [4]: 14.9 µM

Structure (SMILES): Clc1ccc(C2=Nn3c(nnc3-c3[nH]nc4c3CCC4)SC2Cc2ccccc2)cc1Cl (stereo unspecified)
GI50 ([1]; Homo sapiens, CAL-33): 3.3 µM

Structure (SMILES): CC1Sc2nnc(-c3cc(-c4ccc(F)cc4)n[nH]3)n2N=C1c1ccccc1 (stereo unspecified)
GI50 ([1]; Homo sapiens, CAL-33): 36.3 µM
